# PubChem BioAssay AID1743 (Vanderbilt High Throughput Screening Facility, 2009)
# Target: Muscarinic acetylcholine receptor M1 (Rattus norvegicus) (UniProt P08482)
# Experiment: activation of mutant rat M1 receptor calcium signal, mechanism study for M1 allosteric modulator project, cell-based, Y381A mutant, CHO-K1 (AID 1743)
# Details: Fluo-4 calcium flux
# Chain of Muscarinic acetylcholine receptor M1 (Rattus norvegicus) (P08482 whole entry Y381A, looked up): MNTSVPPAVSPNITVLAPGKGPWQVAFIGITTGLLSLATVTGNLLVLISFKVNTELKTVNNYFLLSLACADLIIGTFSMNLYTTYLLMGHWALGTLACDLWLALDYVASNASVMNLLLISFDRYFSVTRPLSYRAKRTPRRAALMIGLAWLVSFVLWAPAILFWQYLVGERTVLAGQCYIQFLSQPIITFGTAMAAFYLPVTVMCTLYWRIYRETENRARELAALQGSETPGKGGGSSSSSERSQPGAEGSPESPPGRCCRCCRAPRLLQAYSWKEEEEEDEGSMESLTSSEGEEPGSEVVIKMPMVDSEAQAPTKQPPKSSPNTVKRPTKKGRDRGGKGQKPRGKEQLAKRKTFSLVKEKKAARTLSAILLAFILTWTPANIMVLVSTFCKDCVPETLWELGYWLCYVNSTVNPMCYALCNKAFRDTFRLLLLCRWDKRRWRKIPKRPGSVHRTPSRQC
row,SMILES,EC50 [nM]
1,CCOC(=O)N1CCC(NCCNC(=O)c2cccs2)CC1,1230
2,CCOC(=O)N1CCC(NCCNC(=O)c2ccccc2)CC1,304
3,CCOC(=O)N1CCC(NCCNC(=O)c2ccccc2C)CC1,379
